In the supplement of paper PMC10307832:

What was measured:
Experiment in all cases: relative viability (nuclei count vs DMSO), 5 days (fraction); higher = more cells survive
Pazopanib + OSI-027 = compound: Cc1ccc(Nc2nccc(N(C)c3ccc4c(C)n(C)nc4c3)n2)cc1S(N)(=O)=O [Pazopanib] + COc1cccc2cc(-c3nc([C@H]4CC[C@H](C(=O)O)CC4)n4ncnc(N)c34)[nH]c12 [OSI-027] (partner 0.5 µM)
Procedure, shortened: (§1)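 Lung cancer cell lines in 1536-well plates were dosed by pin tool the day after seeding, either with one drug alone or with a fixed anchor-drug dose plus five library-drug doses (not always all listed) in √10 steps. After 5 days, cells were fixed and their nuclei stained in one step (final 0.05% Triton X-100, 1% formaldehyde, 1 ug/ml Hoechst), then counted on 4× images. Relative viability is the nuclei count in treated wells divided by that in vehicle wells. Values are medians of duplicate plates.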

Ponatinib + Decitabine = compound: Cc1ccc(C(=O)Nc2ccc(CN3CCN(C)CC3)c(C(F)(F)F)c2)cc1C#Cc1cnc2cccnn12 [Ponatinib] + Nc1ncn([C@H]2C[C@H](O)[C@@H](CO)O2)c(=O)n1 [Decitabine] (partner 2 µM)
Procedure, shortened: as §1

Ponatinib + Crizotinib = compound: Cc1ccc(C(=O)Nc2ccc(CN3CCN(C)CC3)c(C(F)(F)F)c2)cc1C#Cc1cnc2cccnn12 [Ponatinib] + C[C@@H](Oc1cc(-c2cnn(C3CCNCC3)c2)cnc1N)c1c(Cl)ccc(F)c1Cl [Crizotinib] (partner 1 µM)
Procedure, shortened: as §1

Ponatinib + OSI-027 = compound: Cc1ccc(C(=O)Nc2ccc(CN3CCN(C)CC3)c(C(F)(F)F)c2)cc1C#Cc1cnc2cccnn12 [Ponatinib] + COc1cccc2cc(-c3nc([C@H]4CC[C@H](C(=O)O)CC4)n4ncnc(N)c34)[nH]c12 [OSI-027] (partner 0.5 µM)
Procedure, shortened: as §1

Row | Cell Line | relative viability (Pazopanib + OSI-027; first compound 0.01 µM) | relative viability (Pazopanib + OSI-027; first compound 0.03162 µM) | relative viability (Pazopanib + OSI-027; first compound 0.1 µM) | relative viability (Pazopanib + OSI-027; first compound 0.3162 µM) | relative viability (Pazopanib + OSI-027; first compound 1 µM) | relative viability (Ponatinib + Decitabine; first compound 0.002 µM) | relative viability (Ponatinib + Decitabine; first compound 0.006325 µM) | relative viability (Ponatinib + Decitabine; first compound 0.06325 µM) | relative viability (Ponatinib + Decitabine; first compound 0.2 µM) | relative viability (Ponatinib + Crizotinib; first compound 0.002 µM) | relative viability (Ponatinib + Crizotinib; first compound 0.006325 µM) | relative viability (Ponatinib + Crizotinib; first compound 0.06325 µM) | relative viability (Ponatinib + Crizotinib; first compound 0.2 µM) | relative viability (Ponatinib + OSI-027; first compound 0.002 µM) | relative viability (Ponatinib + OSI-027; first compound 0.006325 µM) | relative viability (Ponatinib + OSI-027; first compound 0.06325 µM) | relative viability (Ponatinib + OSI-027; first compound 0.2 µM)
1 | NCI-H838 | 0.435 | 0.488 | 0.373 | 0.42 | 0.555 | 0.417 | 0.475 | 0.458 | 0.487 | 0.793 | 0.95 | 0.813 | 0.789 | 0.416 | 0.416 | 0.482 | 0.349
2 | H3255 | 0.512 | 0.535 | 0.638 | 0.606 | 0.752 | 0.566 | 0.512 | 0.717 | 0.552 | 0.861 | 0.916 | 0.951 | 0.727 | 0.666 | 0.566 | 0.613 | 0.526
3 | NCI-H1437 | 0.901 | 0.879 | 0.998 | 0.907 | 1.05 | 0.498 | 0.548 | 0.606 | 0.593 | 0.899 | 0.957 | 0.967 | 0.763 | 0.809 | 0.864 | 1.01 | 0.75
4 | LU99A | 0.29 | 0.315 | 0.334 | 0.349 | 0.301 | 0.803 | 0.968 | 0.992 | 0.789 | 0.512 | 0.53 | 0.564 | 0.59 | 0.299 | 0.319 | 0.32 | 0.278
5 | HCC-827 | 0.775 | 0.752 | 0.784 | 0.801 | 0.731 | 0.327 | 0.385 | 0.338 | 0.326 | 0.819 | 0.964 | 0.924 | 0.928 | 0.681 | 0.833 | 0.739 | 0.702
6 | LK-2 | 0.199 | 0.228 | 0.185 | 0.233 | 0.171 | 0.301 | 0.312 | 0.273 | 0.274 | 0.26 | 0.217 | 0.234 | 0.269 | 0.151 | 0.217 | 0.162 | 0.147
7 | HCC-366 | 0.807 | 0.992 | 0.823 | 0.975 | 0.945 | 0.336 | 0.317 | 0.387 | 0.37 | 0.474 | 0.506 | 0.531 | 0.519 | 0.821 | 0.984 | 1 | 0.655
8 | BEN | – | 0.348 | 0.314 | 0.287 | 0.314 | 0.723 | 0.687 | 0.699 | 0.656 | 0.838 | 0.824 | 0.804 | 0.794 | 0.3 | 0.305 | 0.312 | 0.332
9 | NCI-H23 | 0.559 | 0.617 | 0.648 | 0.643 | 0.637 | 0.286 | 0.313 | 0.332 | 0.297 | 0.471 | 0.488 | 0.504 | 0.558 | 0.621 | 0.645 | 0.53 | 0.456
